Where two headings read alike, the source gives them in different places.
Tests used:
[1] = Stability to distillation at atmospheric pressure (HPLC area % profile); type: physicochemical; details: Example 5
Method: In this example, a development of example 4, the distillation was performed at atmospheric pressure and the first distillation was halted when the pot temperature reached 99° C. […] A further 25 volumes of water were added and the distillation continued until 25 volumes of distillate had been removed.

[2] = Solubility by w/w % assay of saturated solutions in various solvents; type: physicochemical; details: saturated solution, 21-23° C.
Method: The solubility of fluticasone propionate was measured by w/w % assay of saturated solutions in a variety of solvents at 21-23° C.

[3] = type: physicochemical; details: for Area %: 100° C. under nitrogen, in water
Method: A sample from the above example was heated to 100° C. under nitrogen for 30 hours to examine the stability of the drug under extended distillation times required on scale-up. No new impurities were evident in the area % chromatogram and the assay of the fluticasone propionate appears unaffected by extended periods at 100° C. in water.

Stability to distillation at 100° C. (HPLC area % profile, starting solid to final aqueous slurry) [1]: stable | w/w % solubility of fluticasone propionate ([2]; Acetone): 5.7 w/w % | w/w % solubility of fluticasone propionate ([2]; Ethanol): 0.4 w/w % | w/w % solubility of fluticasone propionate ([2]; Ethyl acetate): 0.2 w/w % | w/w % solubility of fluticasone propionate ([2]; Isopropanol): 0.3 w/w % | w/w % solubility of fluticasone propionate ([2]; tBME): 1.2 w/w % | Time chemically stable to distillation at 100° C. [3]: at least 30 hours | Assay of fluticasone propionate after extended periods at 100° C. in water ([3]; 100° C. in water, up to 30 hours, no new impurities in area % chromatogram): unaffected | Area % ([3]; Time 0 hr): 99.2% | Area % ([3]; Time 6 hr): 99.4% | Area % ([3]; Time 24 hr): 99.5% | Area % ([3]; Time 30 hr): 99.4%
SMILES: CCC(=O)O[C@]1(C(=O)SCF)[C@H](C)C[C@H]2[C@@H]3C[C@H](F)C4=CC(=O)C=C[C@]4(C)[C@@]3(F)[C@@H](O)C[C@@]21C [fluticasone propionate]

— US20050222108A1, “Solvent-based sterilisation of pharmaceuticals” (priority 2002, published 2005)
